Biological target: CDK-activating kinase assembly factor MAT1/Cyclin-H/Cyclin-dependent kinase 7 (Homo sapiens, UniProt P50613)
Assay: n Vitro CDK7 (20 nM) Assay
Description: Compounds with potencies approaching the limit of detection of the assay (IC50 < 10 nM) were further assessed in a more sensitive fluorescence end-point assay. […] Absorbance at 340 nm was followed kinetically at an interval of 2 minutes for 8 hours.The assay was carried out with 100 μl reaction volume per well in a 384-well plate that was pre-spotted nanoliter volume of compounds by LabCyte Echo 555. Compound dilution plates were made by 2-fold (could vary upon necessity) dilution in DMSO for 11 concentrations plus a DMSO control of uninhibited reaction. 2x substrate and coupling reagent mixture was added to the assay plate followed by an addition of an equal volume of 40 nM CDK7/Cyclin H/MAT-1 complex. After mixing, assay plates were spun at 2000 rpm for 3 minutes and then transferred to the plate reader for data collection.

Sequence of CDK-activating kinase assembly factor MAT1/Cyclin-H/Cyclin-dependent kinase 7 (P51946 whole entry): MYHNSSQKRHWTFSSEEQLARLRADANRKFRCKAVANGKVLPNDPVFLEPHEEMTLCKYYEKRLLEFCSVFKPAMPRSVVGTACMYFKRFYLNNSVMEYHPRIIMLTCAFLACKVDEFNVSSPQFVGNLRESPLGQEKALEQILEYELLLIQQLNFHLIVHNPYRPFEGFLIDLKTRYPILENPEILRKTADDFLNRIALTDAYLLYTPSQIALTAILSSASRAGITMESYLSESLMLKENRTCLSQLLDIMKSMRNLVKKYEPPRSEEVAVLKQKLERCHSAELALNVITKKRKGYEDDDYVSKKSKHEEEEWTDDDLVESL
Sequence of CDK-activating kinase assembly factor MAT1/Cyclin-H/Cyclin-dependent kinase 7 (P50613 whole entry): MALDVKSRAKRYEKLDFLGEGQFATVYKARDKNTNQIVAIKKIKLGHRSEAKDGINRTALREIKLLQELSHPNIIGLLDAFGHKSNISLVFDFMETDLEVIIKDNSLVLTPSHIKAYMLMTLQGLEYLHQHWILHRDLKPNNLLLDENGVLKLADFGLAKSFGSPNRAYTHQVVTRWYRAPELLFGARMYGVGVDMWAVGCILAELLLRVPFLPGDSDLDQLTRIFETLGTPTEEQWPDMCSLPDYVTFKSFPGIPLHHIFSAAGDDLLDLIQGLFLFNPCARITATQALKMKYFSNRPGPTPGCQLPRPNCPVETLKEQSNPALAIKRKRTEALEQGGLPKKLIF
Sequence of CDK-activating kinase assembly factor MAT1/Cyclin-H/Cyclin-dependent kinase 7 (P51948 whole entry, further chain): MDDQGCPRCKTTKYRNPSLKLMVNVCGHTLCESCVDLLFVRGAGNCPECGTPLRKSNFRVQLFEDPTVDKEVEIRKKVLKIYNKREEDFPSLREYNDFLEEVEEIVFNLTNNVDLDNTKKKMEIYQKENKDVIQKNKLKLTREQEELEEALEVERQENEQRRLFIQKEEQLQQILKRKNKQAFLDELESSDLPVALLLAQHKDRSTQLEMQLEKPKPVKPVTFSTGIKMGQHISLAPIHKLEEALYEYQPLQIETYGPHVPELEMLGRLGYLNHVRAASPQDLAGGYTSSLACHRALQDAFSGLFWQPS

C[C@@H]1Cc2cnc(NC3CCOCC3)nc2CN1C(=O)[C@H]1CCN(C2COC2)C[C@@H]1c1ccccc1 [WO2022064009, Compound 159]
IC50: 575 nM

From BindingDB's records for patent WO2022064009 (JANSSEN PHARMACEUTICA NV, 2022)
